The subject of test [1] is Caspase-3. Put plainly: Caspase-3 induction in oral cancer cells (KB), colorimetric DEVD-pNA. In kind it is cell-based, human. The note with it: 5 ug/ml. As to the method: Human squamous cell carcinoma (KB) were plated in a 25 cm^2 flask. When cultures achieved confluence, the cyclopentenone derivative of structure 20 was added to cells. The final concentration of derivative of the structure 20 in the flask was 5 ug/ml. The untreated wells served as controls. The cells were incubated with the drug for 2 different time points of 6 and 16 hours at 37° C. The cells were collected by centrifugation at 2000 r.p.m. for 10 minutes. The supernatant was gently removed and discarded while Lysis Buffer was added to the cell pellet (25 ul of lysis buffer per 1×10^4 cell). The cell lysate was incubated on ice for 10 minutes and centrifuged at 10,000-×g for 1 minute. The supernatant was transferred to a new tube and kept on ice. 50 ul of the cell lysate was added in a 96 well plate. To this was added 2× Reaction Buffer. Prior to using reaction buffer 10 ul of fresh DTT stock per 1 ml of 2× Reaction Buffer was added. To each well 5 ul of Caspase-3 colorimetric substrate (DEVD-pNA) was added. The plate was incubated for 1–2 hours at 37° C. and read at 405 nm.
The level of caspase enzymatic activity in the cell lysate is directly proportional to the absorbance at 405 nm.

For test [2], the system named is VEGF. Put plainly: VEGF levels in endothelial cells (ECV304), ELISA. In kind it is cell-based, human. The settings on record: 5 ug/ml, 4 hours. The method, then:
Human endothelial cells (ECV304) were plated at the density of 8–10×10^5 cells per 2 ml in a six well plate. After an overnight incubation of cells at 37° C., cyclopentenone derivatives at a concentration of 5 ug/ml was added to the wells. The untreated wells served as controls. The plates were incubated for 4 hours at 37° C. The medium was collected from all the wells (control and treated) and spun down at 2000 r.p.m to remove the cellular material. The supernatant was collected and used for ELISA (quantikine human VEGF, R&D Systems). The assay employs the quantitative sandwich enzyme immuonoassay technique. A monoclonal antibody specific for VEGF has been pre-coated onto a microplate. Standards and samples were pipetted into the wells and VEGF present was bound by the immobilized antibody. After washing away the unbound substances, an enzyme-linked polyclonal antibody specific for VEGF was added to the wells. Following a wash to remove any unbound antibody-enzyme reagent, a substrate solution was added to the wells and color developed in proportion to the amount of VEGF bound in the initial step. The optical density of each well was determined within 30 minutes using a microplate reader set to 450 nm and reference wavelength at 540 nm. The VEGF levels were inhibited by the addition of cyclopentenone derivatives in vitro.

The test system of test [3] is Tubulin. The test can be described thus: in vitro tubulin polymerization (assembly) assay, absorbance at 340 nm. The note with it: tubulin 1 mg/ml, 37° C., pH 6.9; read-out: IC50 values for inhibition of Tubulin Polymerization. Format: biochemical. The method, then: The cyclopentenone derivatives were checked for their effects on tubulin polymerization in in vitro. Briefly, the tubulin assembly reaction was performed at 37° C. in buffer containing 80 mM PIPES, 1 mM EGTA, 1.0 mM GTP and 1 mM MgCl2 (pH 6.9) at a tubulin concentration of 1 mg/ml in the presence or absence of the cyclopentenone derivatives. The final concentration of the cyclopentenone derivatives in the reaction mixture varied from 1–5 uM. The derivatives were dissolved in 0.1% DMSO. The control experiments were carried out with 0.1% DMSO. The tubulin polymerization was followed by measurement of the absorbance of the solution at 340 nm every 30 seconds. […] Thus the cyclopentenone derivatives mediated their observed anticancer activities by tubulin depolymerization.

Test [4] concerns PTC tumor xenografts. Put plainly: In vivo anti-tumor activity on PTC (colon) xenografted mice. The arrangement: species or system Balb/c athymic mice. The settings on record: PTC xenograft, intravenously 0.5 mg/100 μL once a day for 14 days. As to the method:
PTC tumor xenografts were grown in Balb/c athymic mice by subcutaneous inoculation of a single cell suspension of PTC cells (15×10^6 cells/100 μL). The tumor bearing animals were divided into 2 groups of three animals each including one group comprising untreated control animals. Treatment with compound of formula no. 49 was initiated when the average tumor volumes, as measured using a vernier caliper, were […]. Compound of formula no. 49 was administered intravenously to the assigned group of tumor bearing animals at a dose of 0.5 mg/100 μL once a day and the treatment was continued for a period of 14 days.
The antitumor activity of the compound was monitored by measuring tumor volumes every fourth day using the formula W*W*L*0.4 (W=smaller diameter, L=larger diameter). The percentage inhibition of tumor growth was calculated using the formula (1-tumor volume-treated/tumor volume-control)*100. […] Compound of formula no. […] The percentage inhibition of tumor growth caused compound of formula no. 49 as compared to controls on day 23 was 45.8%.

As for `COc1ccc(C2=C(c3cc(OC)c(OC)c(OC)c3)C(=NO)CC2OC(C)=O)cc1` (stereo not shown) [Compound 20], the “Percent Induction of Caspase-3, 6 hours” value in test [1] (6 hours) was determined as 13.6 ± 2.4%. In test [1] (16 hours), the “Percent Induction of Caspase-3, 16 hours” value is listed as 20.7 ± 3.1%. The “Percent Reduction in VEGF” value in test [2] came out at 2.0 ± 0.1%.
One may read the IC50 as the concentration at which inhibition is half-maximal. On to `COc1ccc(C2=C(c3cc(OC)c(OC)c(OC)c3)C(=O)CC2O)cc1O` (stereo not shown) [Compound 39], for which the IC50 in test [3] worked out at 1.4 ± 0.6 µM.
For the compound `COc1ccc(C2=C(c3cc(OC)c(OC)c(OC)c3)C(=O)C(O)C2)cc1` (stereo not shown) [Compound 48], in test [3], the IC50 was 2.1 ± 0.1 µM.
As to `COc1ccc(C2=C(c3cc(OC)c(OC)c(OC)c3)C(=NO)C(O)C2)cc1` (stereo not shown) [Compound 49], in test [4], the “antitumor activity on PTC xenografts (in words)” value was “significant antitumor activity”. For the same compound, the “Percent Reduction in VEGF” value in test [2] was 28.6 ± 1.9%. Further, the IC50 in test [3] came to 2.3 ± 0.5 µM.
For the compound `COc1ccc(C2=C(c3cc(OC)c(OC)c(OC)c3)/C(=N\O)C(O)C2)cc1F` (stereo not shown) [Compound 66], the IC50 in test [3] is 2 ± 0.6 µM.
As for `COc1ccc(C2=C(c3cc(OC)c(OC)c(OC)c3)C(=O)C(O)C2)cc1O` (stereo not shown) [Compound 74], the half-inhibitory concentration (IC50) in test [3] is 1.8 ± 0.5 µM.
